Measurements reported in patent US9913820B2, “Antimicrobial compositions comprising glyceryl nitrates” (Board of Regents, The University of Texas System, priority 2012, dated 2018).
Like-named read-outs stand apart in the source and are kept apart here.

Experiments:
[1] = test system: Pseudomonas aeruginosa (PA) biofilm; assay: Modified Kuhns Biofilm Eradication Model (silicone discs), PA; format: cell-based; details: for viable colonies recovered from the biofilm eradication procedure: PA, 2 hrs
[2] = test system: Candida albicans (CA) biofilm; assay: Modified Kuhns Biofilm Eradication Model (silicone discs), CA; format: cell-based; details: for viable colonies recovered from the biofilm eradication procedure: CA, 2 hrs
[3] = test system: Methicilin resistant Staphyloccus aureus (MRSA) biofilm; assay: Modified Kuhns Biofilm Eradication Model (silicone discs), MRSA; format: cell-based; details: for viable colonies recovered from the biofilm eradication procedure: MRSA, 2 hrs; for GTN concentration required to eradicate MRSA: 7% citrate
[4] = test system: Staphylococcus aureus, Pseudomonas aeruginosa and Candida albicans biofilms; details: in the presence of ethanol and citrate
[5] = 10% ethanol and 7% citrate, FIG. 5

For O=C(O)CC(O)(CC(=O)O)C(=O)O [Citrate], the “viable colonies recovered from the biofilm eradication procedure” value (“viable colonies recovered” for short) ([1]; component alone at 7%) was 2.24E+04 cfu/ml, the “eradication of mature biofilm within 2 hours (in words)” value (“eradication … (in words)” below) ([1]; Pseudomonas Aeruginosa, 7% alone) was “neither 1 mg/ml GTN nor 7% citrate alone were able to eradicate” and the “viable colonies recovered” value ([2]; component alone at 7%) was 2.16E+04 cfu/ml. The “eradication … (in words)” value ([2]; Candida Albicans, 7% alone) was “neither 1 mg/ml GTN nor 7% citrate alone were able to eradicate” and the “viable colonies recovered” value ([3]; component alone at 7%) was 2.92E+04 cfu/ml.

CCN(CC)C(=S)SSC(=S)N(CC)CC [Disulfiram] was tested, and the “viable colonies recovered” value ([1]; component alone at 0.2 mg/ml) was 5.00E+05 cfu/ml, the “viable colonies recovered” value ([2]; component alone at 0.2 mg/ml) was 0.00E+00 cfu/ml and the “viable colonies recovered” value ([3]; component alone at 0.2 mg/ml) was 2.00E+04 cfu/ml.

In the case of O=S(=O)(O)CCS [MesNA], the “viable colonies recovered” value ([1]; component alone at 5%) is reported as 5.00E+05 cfu/ml, the “viable colonies recovered” value ([2]; component alone at 5%) is reported as 5.00E+05 cfu/ml and the “viable colonies recovered” value ([3]; component alone at 5%) is reported as 5.00E+05 cfu/ml.

For O=[N+]([O-])OCC(CO[N+](=O)[O-])O[N+](=O)[O-] [GTN, glyceryl trinitrate], the “eradication … (in words)” value [1] was “neither 1 mg/ml GTN nor 7% citrate alone were able to eradicate”, the “GTN concentration that eradicated P.aeruginosa” value [1, 5] was 0.2 mg/mL and the “viable colonies recovered” value ([1]; component alone at 1 mg/ml) was 2.05E+03 cfu/ml. For the same compound, the “eradication … (in words)” value [2] was “neither 1 mg/ml GTN nor 7% citrate alone were able to eradicate”, the “GTN concentration that eradicated C. albicans” value [2, 5] was 0.2 mg/mL and the “viable colonies recovered” value ([2]; component alone at 1 mg/ml) was 5.00E+03 cfu/ml. For the same compound, the “GTN concentration that fully eradicated MRSA” value [3, 5] was 0.5 mg/mL, the “GTN concentration required to eradicate MRSA” value ([3]; 15% ethanol, FIG. 6) was 0.2 mg/mL and the “GTN concentration required to eradicate MRSA” value ([3]; 20% ethanol, FIG. 7) was 0.1 mg/mL. For the same compound, the “viable colonies recovered” value ([3]; component alone at 1 mg/ml) was 5.00E+03 cfu/ml, the “GTN concentration to fully eradicate mature biofilms within 2 hours” value [4] was 100 microgram/ml and the “reduction of GTN concentration versus what would be needed by itself” value ([4]; full eradication within 2 hours) was 10 fold.
